Paper PMC7796366, “Application of HPLC-DAD for In Vitro Investigation of Acetylcholinesterase Inhibition Activity of Selected Isoquinoline Alkaloids from Sanguinaria canadensis Extracts” (Molecules, 2021)
Values joined by “and” are separate entries in the source; they are usually repeats but may differ in a detail not shown here. Identical values can stand only once.

Molecular target: T1, acetylcholinesterase (Homo sapiens, UniProt P22303)
T1 construct: purchased Sigma-Aldrich (St. Louis, MO, USA)
Test: biochemical
Assay type: biochemical
Settings: for IC50: concentration of acetylcholinesterase 0.2 U/mL, HPLC-DAD; for inhibition: single alkaloid standard, addition of 125 µL of 1 mg/mL (250 µg/mL final), acetylcholinesterase 10 U/mL
Protocol: For determination of acetylcholinesterase inhibitory activity, HPLC analysis was performed on the same apparatus as determination of alkaloid contents on Polar RP column with mobile phase A containing methanol and 0.0025 M diethylamine, mobile phase B containing acetate buffer at pH 3.8 and 0.0025 M diethylamine, and mobile phase in gradient elution: 0–15 min, 10% A; 15–30 min, 10–70% A; 30–60 min, 70% A. Flow rate was 1 mL/min.
[…] Samples for determination of acetylcholinesterase inhibitory activity were prepared by addition of 50 µL of acetylthiocholine iodide, 50 µL of 5′-dithiobis-(2-nitrobenzoic acid), […], and phosphate buffer at pH 7.8 to obtain 500 µL of final solution. […] All components were mixed and samples were incubated for 15 min at 37 °C. Samples were filtrated by syringe filter (CHROMAFIL Xtra, PVDF-29/25 0.20 µm) and injected into the HPLC system.

T1 sequence (P22303 32-614, species assumed): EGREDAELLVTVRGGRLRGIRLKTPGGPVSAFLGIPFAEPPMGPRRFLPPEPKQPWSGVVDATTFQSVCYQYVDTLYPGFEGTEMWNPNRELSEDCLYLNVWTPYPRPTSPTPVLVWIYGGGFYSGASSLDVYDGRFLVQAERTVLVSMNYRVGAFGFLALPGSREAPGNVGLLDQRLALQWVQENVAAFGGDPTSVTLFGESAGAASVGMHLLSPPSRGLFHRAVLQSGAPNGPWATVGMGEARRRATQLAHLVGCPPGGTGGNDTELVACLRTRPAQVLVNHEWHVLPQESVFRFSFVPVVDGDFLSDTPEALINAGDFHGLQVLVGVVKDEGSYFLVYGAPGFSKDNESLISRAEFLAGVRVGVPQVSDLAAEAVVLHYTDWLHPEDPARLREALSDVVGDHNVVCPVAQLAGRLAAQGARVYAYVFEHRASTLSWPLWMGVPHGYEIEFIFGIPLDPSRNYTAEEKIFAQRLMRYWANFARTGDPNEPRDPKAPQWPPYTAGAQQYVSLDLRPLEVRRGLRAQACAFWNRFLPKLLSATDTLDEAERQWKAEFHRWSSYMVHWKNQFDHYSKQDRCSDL

Row | SMILES | IC50 | inhibition | % inhibition of acetylcholinesterase activity
1 | CN1Cc2c(ccc3c2OCO3)[C@@H]2[C@H]1c1cc3c(cc1C[C@@H]2O)OCO3 [Chelidonine] | 27 µM | 100% | 
2 | COc1ccc2cc3[n+](cc2c1OC)CCc1cc2c(cc1-3)OCO2 [Berberine] |  |  | highest activity
3 | CN1CCc2cc3c(cc2C(=O)Cc2ccc4c(c2C1)OCO4)OCO3 [Protopine] | 65.5 µM | ~22% | 
4 | COc1ccc2c(c[n+](C)c3c4cc5c(cc4ccc23)OCO5)c1OC [Chelerythrine] | 0.718 µM and 0.72 µM | 100% | 
5 | C[n+]1cc2c3c(ccc2c2ccc4cc5c(cc4c21)OCO5)OCO3 [Sanguinarine] | 5.57 µM |  | 
